Source: patent US11053204B2, “Pyrimidinyloxy benzene derivatives as herbicides” (FMC Corporation, priority 2015, dated 2021)

Assays:
Type in all cases: in vivo
[1] = system: sedge, umbrella (small-flower umbrella sedge, Cyperus difformis); assay: Test B flooded paddy test, plant response rating; details: 250 g ai/ha; Flood; scale of 0 to 100 where 0 is no effect and 100 is complete control; 13 to 15 days
Procedure, shortened: (§1)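 Pots were flooded to 3 cm above the soil surface at treatment, compound applied directly to the paddy water, and that depth held throughout. Plants were kept in a greenhouse for 13 to 15 days, then visually rated against untreated controls.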

[2] = system: barnyardgrass (Echinochloa crus-galli); assay: Test B flooded paddy test, plant response rating; details: 250 g ai/ha; Flood; scale of 0 to 100 where 0 is no effect and 100 is complete control; 13 to 15 days
Procedure, shortened: as §1

rice (Oryza sativa) = assay: Test B flooded paddy test, plant response rating; details: 250 g ai/ha; Flood; scale of 0 to 100 where 0 is no effect and 100 is complete control; 13 to 15 days
Procedure, shortened: as §1

[3] = system: ducksalad (Heteranthera limosa); assay: Test B flooded paddy test, plant response rating; details: 250 g ai/ha; Flood; scale of 0 to 100 where 0 is no effect and 100 is complete control; 13 to 15 days
Procedure, shortened: as §1

[4] = system: giant foxtail (Setaria faberii); assay: Test A postemergence, visual injury rating
Procedure, shortened: (§2)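 Visual 0–100 rating (100 = complete control) taken about 10 d post-treatment relative to untreated checks. Preemergence: directed soil spray on sown loam/sand pots. Postemergence: seedlings 2–10 cm, 1–2 leaf. Non-phytotoxic solvent formulation with surfactant.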

[5] = system: ragweed (common ragweed, Ambrosia elatior); assay: Test A postemergence, visual injury rating
Procedure, shortened: as §2

[6] = system: blackgrass (Alopecurus myosuroides); assay: Test A postemergence, visual injury rating
Procedure, shortened: as §2

[7] = system: Italian ryegrass (Lolium multiflorum); assay: Test A postemergence, visual injury rating
Procedure, shortened: as §2

[8] = system: galium (catchweed bedstraw, Galium aparine); assay: Test A postemergence, visual injury rating
Procedure, shortened: as §2

kochia (Kochia scoparia) [9] = assay: Test A postemergence, visual injury rating
Procedure, shortened: as §2

[10] = system: barnyardgrass (Echinochloa crus-galli); assay: Test A postemergence, visual injury rating; details: 0 is no effect, 100 is complete control; for Barnyardgrass plant response rating: 0 to 100 scale, approximately 10 days
Procedure, shortened: as §2

corn (Zea mays) = assay: Test A postemergence, visual injury rating
Procedure, shortened: as §2

[11] = system: wheat (Triticum aestivum); assay: Test A postemergence, visual injury rating
Procedure, shortened: as §2

[12] = system: pigweed (Amaranthus retroflexus); assay: Test A postemergence, visual injury rating
Procedure, shortened: as §2

[13] = system: giant foxtail (Setaria faberii); assay: Test A preemergence, visual injury rating
Procedure, shortened: as §2

[14] = system: ragweed (common ragweed, Ambrosia elatior); assay: Test A preemergence, visual injury rating
Procedure, shortened: as §2

[15] = system: Italian ryegrass (Lolium multiflorum); assay: Test A preemergence, visual injury rating
Procedure, shortened: as §2

kochia (Kochia scoparia) [16] = assay: Test A preemergence, visual injury rating
Procedure, shortened: as §2

[17] = system: barnyardgrass (Echinochloa crus-galli); assay: Test A preemergence, visual injury rating
Procedure, shortened: as §2

[18] = system: pigweed (Amaranthus retroflexus); assay: Test A preemergence, visual injury rating
Procedure, shortened: as §2

[19] = 125 g ai/ha, 0 is no effect, 100 is complete control
[20] = 500 g ai/ha, 0 is no effect, 100 is complete control
[21] = 125 g ai/ha, 0 to 100 scale (0 no effect, 100 complete control)
[22] = 500 g ai/ha, 0 to 100 scale (0 no effect, 100 complete control)
[23] = 31 g ai/ha, 0 to 100 scale, 0 is no effect, 100 is complete control, approximately 10 days
[24] = 31 g ai/ha, 0 to 100 scale, 0 no effect, 100 complete control
[25] = 31 g ai/ha, 0 to 100 scale (0 no effect, 100 complete control)
[26] = 125 g ai/ha, 0 to 100 scale, 0 is no effect, 100 is complete control, approximately 10 days

O=C(OCC1CCC1)c1c(Br)cccc1Oc1ncc(Cl)cn1 [Compound 8]
80: Kochia plant response rating (0 to 100 scale) (kochia (Kochia scoparia) [9]; [20])
10: Ragweed plant response rating (0 to 100 scale) [5, 19] | Barnyardgrass plant response rating (0 to 100 scale) ([10]; 125 g ai/ha) | Pigweed plant response rating [18, 21]
60: Foxtail, Giant plant response rating (0 to 100 scale) [4, 20] | Galium plant response rating (0 to 100 scale) [8, 19] | Pigweed plant response rating [18, 22]
20: Blackgrass plant response rating (0 to 100 scale) [6, 20] | Corn plant response rating (0 to 100 scale) (corn (Zea mays); [20])
100: Foxtail, Giant plant response rating [13, 21] | Foxtail, Giant plant response rating [13, 22] | Barnyardgrass plant response rating [17, 22]
40: Ragweed plant response rating (0 to 100 scale) [5, 20] | Kochia plant response rating (0 to 100 scale) (kochia (Kochia scoparia) [9]; [19]) | Barnyardgrass plant response rating (0 to 100 scale) ([10]; 500 g ai/ha)
30: Foxtail, Giant plant response rating (0 to 100 scale) [4, 19] | Ryegrass, Italian plant response rating (0 to 100 scale) [7, 20] | Ryegrass, Italian plant response rating [15, 22] | Barnyardgrass plant response rating [17, 21]
70: Plant response rating, Sedge, Umbrella [1]
0: Plant response rating, Barnyardgrass [2] | Plant response rating, Rice (rice (Oryza sativa)) | Plant response rating, Ducksalad [3] | Blackgrass plant response rating (0 to 100 scale) [6, 19] | Ryegrass, Italian plant response rating (0 to 100 scale) [7, 19] | Corn plant response rating (0 to 100 scale) (corn (Zea mays); [19]) | Wheat plant response rating (0 to 100 scale) [11, 19] | Wheat plant response rating (0 to 100 scale) [11, 20] | Ragweed plant response rating [14, 21] | Ragweed plant response rating [14, 22] | Ryegrass, Italian plant response rating [15, 21] | Kochia plant response rating (kochia (Kochia scoparia) [16]; [21]) | Kochia plant response rating (kochia (Kochia scoparia) [16]; [22])
90: Galium plant response rating (0 to 100 scale) [8, 20] | Pigweed plant response rating (0 to 100 scale) [12, 20]
50: Pigweed plant response rating (0 to 100 scale) [12, 19]

O=C(OCC(F)(F)C(F)(F)F)c1c(F)cccc1Oc1ncc(Br)cn1 [Compound 4]
0: Plant response rating, Sedge, Umbrella [1] | Plant response rating, Barnyardgrass [2] | Plant response rating, Rice (rice (Oryza sativa)) | Plant response rating, Ducksalad [3] | Foxtail, Giant plant response rating [4, 23] | Foxtail, Giant plant response rating (0 to 100 scale) [4, 19] | Ragweed plant response rating [5, 23] | Ragweed plant response rating (0 to 100 scale) [5, 19] | Blackgrass plant response rating [6, 23] | Blackgrass plant response rating (0 to 100 scale) [6, 19] | Ryegrass, Italian plant response rating [7, 23] | Ryegrass, Italian plant response rating (0 to 100 scale) [7, 19] | Galium plant response rating [8, 23] | Galium plant response rating (0 to 100 scale) [8, 19] | Kochia plant response rating (kochia (Kochia scoparia) [9]; [23]) | Kochia plant response rating (0 to 100 scale) (kochia (Kochia scoparia) [9]; [19]) | Barnyardgrass plant response rating ([10]; 31 g ai/ha) | Barnyardgrass plant response rating (0 to 100 scale) ([10]; 125 g ai/ha) | Corn plant response rating (corn (Zea mays); [23]) | Corn plant response rating (0 to 100 scale) (corn (Zea mays); [19]) | Wheat plant response rating [11, 23] | Wheat plant response rating (0 to 100 scale) [11, 19] | Pigweed plant response rating [12, 23] | Pigweed plant response rating (0 to 100 scale) [12, 19] | Plant response rating, Foxtail, Giant [13, 24] | Foxtail, Giant plant response rating [13, 21] | Plant response rating, Ragweed [14, 24] | Ragweed plant response rating [14, 21] | Plant response rating, Ryegrass, Italian [15, 24] | Ryegrass, Italian plant response rating [15, 21] | Plant response rating, Kochia (kochia (Kochia scoparia) [16]; [24]) | Kochia plant response rating (kochia (Kochia scoparia) [16]; [21]) | Plant response rating, Barnyardgrass [17, 24] | Barnyardgrass plant response rating [17, 21] | Plant response rating, Pigweed [18, 24] | Pigweed plant response rating [18, 21]

N#Cc1cccc(Oc2ncc(Cl)cn2)c1COCC(F)(F)F [Compound 131]
90: Plant response rating, Sedge, Umbrella [1] | Kochia plant response rating (kochia (Kochia scoparia) [9]; [26]) | Plant response rating, Foxtail, Giant [13, 21] | Plant response rating, Pigweed [18, 24]
15: Plant response rating, Barnyardgrass [2] | Plant response rating, Rice (rice (Oryza sativa))
0: Foxtail, Giant plant response rating [4, 25] | Ragweed plant response rating [5, 25] | Ragweed plant response rating [5, 26] | Blackgrass plant response rating [6, 25] | Blackgrass plant response rating [6, 26] | Ryegrass, Italian plant response rating [7, 25] | Barnyardgrass plant response rating ([10]; 31 g ai/ha) | Wheat plant response rating [11, 25] | Plant response rating, Foxtail, Giant [13, 24] | Plant response rating, Ragweed [14, 24] | Plant response rating, Ragweed [14, 21] | Plant response rating, Ryegrass, Italian [15, 24] | Plant response rating, Barnyardgrass [17, 24]
30: Corn plant response rating (corn (Zea mays); [26])
10: Barnyardgrass plant response rating ([10]; 125 g ai/ha) | Plant response rating, Kochia (kochia (Kochia scoparia) [16]; [24])
50: Galium plant response rating [8, 26] | Pigweed plant response rating [12, 25]
20: Foxtail, Giant plant response rating [4, 26] | Ryegrass, Italian plant response rating [7, 26] | Galium plant response rating [8, 25] | Corn plant response rating (corn (Zea mays); [25]) | Wheat plant response rating [11, 26] | Plant response rating, Ryegrass, Italian [15, 21]
80: Plant response rating, Ducksalad [3] | Pigweed plant response rating [12, 26]
100: Plant response rating, Kochia (kochia (Kochia scoparia) [16]; [21]) | Plant response rating, Barnyardgrass [17, 21] | Plant response rating, Pigweed [18, 21]
40: Kochia plant response rating (kochia (Kochia scoparia) [9]; [25])
